≈ marks a conversion by molar mass, not a printed value. Read-outs that look alike come from different tables or passages of the source.
Tests used:
[1] = tested on: KRAS G12C-dependent Ba/F3 cells; experiment: Ba/F3 proliferation assay, KRAS G12C; format: cell-based; settings: AlamarBlue
Method in brief: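 Proliferation of mutant-KRAS-driven Ba/F3 cells cultured without IL-3 is followed with AlamarBlue after compound addition. Curves are fitted from duplicate wells.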

NCI-H2122 cells = experiment: NCI-H2122 CTG proliferation assay (120 h) (NSCLC, G12C); format: cell-based
Method in brief: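 Proliferation was read by CellTiter-Glo luminescence after 120 h of compound exposure, starting one day after seeding 200 NCI-H2122 (G12C) cells per well in RPMI/10% FCS. RLU relative to DMSO wells gave percent viability, and four-parameter nonlinear regression gave IC50.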

AsPC-1 cells = experiment: AsPC-1 CTG proliferation assay (120 h) (pancreatic cancer, G12D); format: cell-based
Method in brief: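 CellTiter-Glo luminescence, normalised to DMSO wells, measured viability after 120 h compound exposure. Cells were AsPC-1 pancreatic cancer (G12D) plated at 2000 per well in RPMI/10% FCS the day before dosing. IC50 derived by four-parameter regression.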

LOVO cells = experiment: LOVO CTG proliferation assay (120 h) (CRC, G13D); format: cell-based; settings: CTG 120 h
Method in brief: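 IC50 comes from a four-parameter fit of CellTiter-Glo viability, expressed as RLU relative to DMSO wells. Compound exposure lasted 120 h in LOVO cells seeded the day before at 1000 cells/well in DMEM with 10% fetal calf serum.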

[2] = Plasma protein binding assay (PPB), equilibrium dialysis, 10% FCS in PBS; format: in vitro ADME; settings: for fraction unbound: bovine, read-out: PPB 10% FCS (% fu)
Method in brief: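 Test compound (1-10 μmol/L) in 10% FCS in PBS was dialysed for 3-5 h at 37° C versus PBS ± dextran across a semipermeable membrane. LC-MS of both compartments after protein precipitation gave Cserum and Cbuffer, from which the unbound fraction fu was derived.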

[3] = Solubility measurement (DMSO solution method), McIlvaine buffer pH 4.5 or 6.8; format: physicochemical; settings: DMSO stock diluted to 250 μM, 24 h shaking at ambient temperature; for solubility at 24 h: aqueous buffer, kinetic from dmso stock
Method in brief: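 Filtrate concentration by LC-UV, calibrated to a known-concentration reference dissolved completely in acetonitrile/water (1:1). Samples came from 250 µM final dilutions of DMSO stock in pH 4.5 or 6.8 McIlvaine buffer, shaken 24 h at ambient temperature, then filtered.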

[4] = McIlvaine buffer pH 4.5, read-out: solubility pH 4.5
[5] = McIlvaine buffer pH 6.8, read-out: solubility pH 6.8

SMILES	IC50 ([1]; Mus musculus, BaF3, 72 h)	IC50 (NCI-H2122 cells; Homo sapiens)	IC50 (AsPC-1 cells; Homo sapiens, ASPC1)	IC50 (LOVO cells; Homo sapiens)	fraction unbound [2]	solubility at 24 h [3, 4]	solubility at 24 h [3, 5]	IC50 ([1]; 72 h)	IC50 (NCI-H2122 cells)	IC50 (AsPC-1 cells)	IC50 (LOVO cells)	PPB 10% FCS (% fu) ([2]; fraction unbound)	solubility pH 4.5 ([3]; McIlvaine buffer pH 4.5)	solubility pH 6.8 ([3]; McIlvaine buffer pH 6.8)
C[C@H](Oc1cc(Cl)nc(-c2onc3c2CCC[C@@]32CCCc3sc(N)c(C#N)c32)n1)[C@@H]1CCCN1C [I-1]	77 nM	4120 nM	5.9 µM	1270 nM	0.53	> 125 µg/mL	101 µg/mL (≈ 192 µM)							
C[C@H](Oc1cc(N2CCNC3(CCC3)C2)nc(-c2onc3c2CCC[C@@]32CCCc3sc(N)c(C#N)c32)n1)[C@@H]1CCCN1C [I-3]	345 nM	3370 nM	0.273 µM	2160 nM	0.68	> 173 µg/mL	> 176 µg/mL							
C[C@H](Oc1cc(-n2ccnc2)nc(-c2onc3c2CCC[C@@]32CCCc3sc(N)c(C#N)c32)n1)[C@@H]1CCCN1C [I-20]	14 nM	1360 nM	5.42 µM	298 nM	0.58	> 157 µg/mL	98 µg/mL (≈ 176 µM)							
C[C@H](Oc1cc(-c2ccn(C)n2)nc(-c2onc3c2CCC[C@@]32CCCc3sc(N)c(C#N)c32)n1)[C@@H]1CCCN1C [I-21]								6 nM	1430 nM	2.98 µM	128 nM	83 % fu	110 μg/ml	33 μg/ml
C[C@H](Oc1cc([C@@H]2CCOC2)nc(-c2onc3c2CCC[C@@]32CCCc3sc(N)c(C#N)c32)n1)[C@@H]1CCCN1C [I-22]	9 nM	10200 nM	0.65 µM	31 nM	0.38	112 µg/mL (≈ 200 µM)	104 µg/mL (≈ 185 µM)							
CO[C@@H]1C[C@@H]([C@H](C)Oc2cc(-c3ccn(C)n3)nc(-c3onc4c3CCC[C@@]43CCCc4sc(N)c(C#N)c43)n2)N(C)C1 [I-23]	10 nM	8830 nM	8.16 µM	79 nM	0.2	106 µg/mL (≈ 176 µM)	< 1 µg/mL							
Cc1nc(-c2cc(O[C@@H](C)[C@@H]3CCCN3C)nc(-c3onc4c3CCC[C@@]43CCCc4sc(N)c(C#N)c43)n2)cs1 [I-24]	9 nM	930 nM	3.45 µM	101 nM	0.19	68 µg/mL (≈ 116 µM)	< 1 µg/mL							
C[C@H](Oc1cc(-c2ccc(N)nc2)nc(-c2onc3c2CCC[C@@]32CCCc3sc(N)c(C#N)c32)n1)[C@@H]1CCCN1C [I-25]	92 nM	1650 nM	3.45 µM	1060 nM	0.35	> 170 µg/mL	44 µg/mL (≈ 75.5 µM)							
C[C@H](Oc1cc(-c2cnsc2)nc(-c2onc3c2CCC[C@@]32CCCc3sc(N)c(C#N)c32)n1)[C@@H]1CCCN1C [I-27]	18 nM	599 nM	2.12 µM	265 nM	0.21	67 µg/mL (≈ 117 µM)	1 µg/mL (≈ 1.74 µM)							
Cc1ccc(-c2cc(O[C@@H](C)[C@@H]3CCCN3C)nc(-c3onc4c3CCC[C@@]43CCCc4sc(N)c(C#N)c43)n2)cn1 [I-28]	67 nM	2600 nM	3.42 µM	390 nM	0.3	93 µg/mL (≈ 160 µM)	8 µg/mL (≈ 13.8 µM)							
C[C@H](Oc1cc(-n2nccn2)nc(-c2onc3c2CCC[C@@]32CCCc3sc(N)c(C#N)c32)n1)[C@@H]1CCCN1C [I-29]	18 nM	3130 nM	10.3 µM	1650 nM	0.54	> 114 µg/mL	82 µg/mL (≈ 147 µM)							
C[C@H](Oc1cc(-c2ccn(C[C@@H](C)O)n2)nc(-c2onc3c2CCC[C@@]32CCCc3sc(N)c(C#N)c32)n1)[C@@H]1CCCN1C [I-30]	9 nM	837 nM	4.57 µM	66 nM	0.46	> 150 µg/mL	> 141 µg/mL							
C[C@H](Oc1cc(-n2ccnn2)nc(-c2onc3c2CCC[C@@]32CCCc3sc(N)c(C#N)c32)n1)[C@@H]1CCCN1C [I-32]	3 nM	1510 nM	4.44 µM	159 nM	0.48	100 µg/mL (≈ 179 µM)	14 µg/mL (≈ 25.1 µM)							
C[C@H](Oc1cc(-c2ccn3ncnc3c2)nc(-c2onc3c2CCC[C@@]32CCCc3sc(N)c(C#N)c32)n1)[C@@H]1CCCN1C [I-33]	14 nM	1420 nM	3.71 µM	574 nM	0.31	8 µg/mL (≈ 13.2 µM)	4 µg/mL (≈ 6.58 µM)							
C[C@H](Oc1cc(-c2ccn(C3COC3)n2)nc(-c2onc3c2CCC[C@@]32CCCc3sc(N)c(C#N)c32)n1)[C@@H]1CCCN1C [I-34]	7 nM	1070 nM	4.15 µM	161 nM	0.54	> 135 µg/mL	92 µg/mL (≈ 150 µM)							
C[C@H](Oc1cc(N2C[C@H](C)N(C)[C@@H](C)C2)nc(-c2onc3c2CCC[C@@]32CCCc3sc(N)c(C#N)c32)n1)[C@@H]1CCCN1C [I-43]	170 nM	1410 nM	1.01 µM	554 nM	0.73	> 346 µg/mL	> 306 µg/mL							
C[C@H](Oc1cc(N2CC(N(C)C)C2)nc(-c2noc3c2CCC[C@@]32CCCc3sc(N)c(C#N)c32)n1)[C@@H]1CCCN1C [II-7]	277 nM	3500 nM	1.64 µM	835 nM	0.43	> 141 µg/mL	> 134 µg/mL							
C[C@H](Oc1cc(N2CCN(CCO)CC2)nc(-c2noc3c2CCC[C@@]32CCCc3sc(N)c(C#N)c32)n1)[C@@H]1CCCN1C [II-8]	301 nM	933 nM	2.73 µM	680 nM	0.17	> 141 µg/mL	> 132 µg/mL							
C[C@H](Oc1cc(N2C[C@@H](N(C)C)[C@@H](O)C2)nc(-c2noc3c2CCC[C@@]32CCCc3sc(N)c(C#N)c32)n1)[C@@H]1CCCN1C [II-10]	844 nM	8440 nM	0.811 µM	972 nM	0.69	> 143 µg/mL	> 135 µg/mL							
CN[C@H]1CCN(c2cc(O[C@@H](C)[C@@H]3CCCN3C)nc(-c3noc4c3CCC[C@@]43CCCc4sc(N)c(C#N)c43)n2)C1 [II-35]	1290 nM	4800 nM	0.713 µM	1690 nM	0.77									
C[C@H](Oc1cc([C@H]2CCN(C)C2)nc(-c2noc3c2CCC[C@@]32CCCc3sc(N)c(C#N)c32)n1)[C@@H]1CCCN1C [II-38]	66 nM	2590 nM	0.213 µM	74 nM	0.54									
C[C@H](Oc1cc(N2CCN(C)CC2)nc(-c2noc3c2CCC[C@@]32CCCc3sc(N)c(C#N)c32)n1)[C@@H]1CCCN1[C@@H]1CCOC1 [II-39]	193 nM	3600 nM	1.76 µM	2920 nM	0.17									
